Where a name gives a salt, the structure may show the parent alone.
What follows are compounds tested against T1, TBK1 (Homo sapiens, UniProt Q9UHD2) (assay: TBK1 protein kinase assay ([γ-33P]ATP, P81 filterplates)). Settings: 50 μM ATP; read-out: Potency (TBK1 IC50 potency score).
T1 construct: All protein kinases were of human origin and encoded full length proteins, unless indicated otherwise; His6; made in house; host or cells: insect Sf21 cells
T1 sequence (Q9UHD2 1-729): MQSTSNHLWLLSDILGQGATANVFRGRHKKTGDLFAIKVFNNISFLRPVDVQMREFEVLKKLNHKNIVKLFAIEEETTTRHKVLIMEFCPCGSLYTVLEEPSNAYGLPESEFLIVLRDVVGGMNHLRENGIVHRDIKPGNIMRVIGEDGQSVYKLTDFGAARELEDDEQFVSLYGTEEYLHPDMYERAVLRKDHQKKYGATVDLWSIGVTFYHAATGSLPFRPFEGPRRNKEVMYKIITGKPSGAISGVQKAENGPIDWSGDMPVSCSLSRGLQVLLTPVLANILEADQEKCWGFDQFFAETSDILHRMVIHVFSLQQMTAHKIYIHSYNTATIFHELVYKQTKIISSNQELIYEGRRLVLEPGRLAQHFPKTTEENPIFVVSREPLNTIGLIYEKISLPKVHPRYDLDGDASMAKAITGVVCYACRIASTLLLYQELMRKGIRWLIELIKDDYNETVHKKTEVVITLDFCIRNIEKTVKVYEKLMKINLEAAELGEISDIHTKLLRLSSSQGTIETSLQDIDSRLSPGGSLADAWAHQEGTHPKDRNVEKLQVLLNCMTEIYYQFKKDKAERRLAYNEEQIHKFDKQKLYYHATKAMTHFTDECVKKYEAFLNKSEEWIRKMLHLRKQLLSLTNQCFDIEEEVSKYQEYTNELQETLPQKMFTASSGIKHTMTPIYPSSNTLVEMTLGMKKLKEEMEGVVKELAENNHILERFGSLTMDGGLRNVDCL
Type: biochemical
Method in brief: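 Human TBK1 assayed for 30 min with peptide substrate (300 μM), 50 μM [γ-33P]ATP and 10 mM magnesium acetate in 50 mM Tris/HCl pH 7.5, 0.1 mM EGTA, 0.1% 2-mercaptoethanol. Stopped with orthophosphoric acid and counted on P81 filters. IC50 from 10 compound concentrations.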

| SMILES | IC50 |
| --- | --- |
| O=C1NCc2cc(Nc3ncc(C4CC4)c(NCCCNC(=O)C4CCC4)n3)ccc21 [Example 90, Cyclobutanecarboxylic acid {3-[5-cyclopropyl-2-(1-oxo-2,3-dihydro-1H-isoindol-5-ylamino)-pyrimidin-4-ylamino]-propyl}-amide. Trifluoroacetic acid salt] | < 100 nM |
| CN1CCN(c2cccc(Nc3ncc(C4CC4)c(NCCCNC(=O)C4CCC4)n3)c2)CC1 [Example 91, Cyclobutanecarboxylic acid (3-{5-cyclopropyl-2-[3-(4-methyl-piperazin-1-yl)-phenylamino]-pyrimidin-4-ylamino}-propyl)-amide. Trifluoroacetic acid salt] | < 100 nM |
| O=C(NCCCNc1nc(Nc2ccc(N3CCOCC3)nc2)ncc1C1CC1)C1CCC1 [Example 93, Cyclobutanecarboxylic acid {3-[5-cyclopropyl-2-(6-morpholin-4-yl-pyridin-3-ylamino)-pyrimidin-4-ylamino]-propyl}-amide] | < 100 nM |
| O=C(NCCCNc1nc(Nc2cccc(-c3nnn[nH]3)c2)ncc1C1CC1)C1CCC1 [Example 94, Cyclobutanecarboxylic acid (3-{5-cyclopropyl-2-[3-(2H-tetrazol-5-yl)-phenylamino]-pyrimidin-4-ylamino}-propyl)-amide] | 100 to 1000 nM |
| O=C(O)Cc1cccc(Nc2ncc(C3CC3)c(NCCCNC(=O)C3CCC3)n2)c1 [Example 95, (3-{4-[3-(Cyclobutanecarbonyl-amino)-propylamino]-5-cyclopropyl-pyrimidin-2-ylamino}-phenyl)-acetic acid. Hydrochloride] | < 100 nM |
| O=C(NCCCNc1nc(Nc2ccc3nc[nH]c3c2)ncc1C1CC1)C1CCC1 [Example 96, Cyclobutanecarboxylic acid {3-[2-(3H-benzimidazol-5-ylamino)-5-cyclopropyl-pyrimidin-4-ylamino]-propyl}-amide] | < 100 nM |
| O=C(NCCCNc1nc(Nc2ccc(Br)nc2)ncc1C1CC1)C1CCC1 [Example 97, Cyclobutanecarboxylic acid {3-[2-(6-bromo-pyridin-3-ylamino)-5-cyclopropyl-pyrimidin-4-ylamino]-propyl}-amide] | < 100 nM |
| O=C(NCCCNc1nc(Nc2ccc(I)nc2)ncc1C1CC1)C1CCC1 [Example 98, Cyclobutanecarboxylic acid {3-[5-cyclopropyl-2-(6-iodo-pyridin-3-ylamino)-pyrimidin-4-ylamino]-propyl}-amide] | < 100 nM |
| O=C(NCCCNc1nc(Nc2ccc(Cl)nc2)ncc1C1CC1)C1CCC1 [Example 99, Cyclobutanecarboxylic acid {3-[2-(6-chloro-pyridin-3-ylamino)-5-cyclopropyl-pyrimidin-4-ylamino]-propyl}-amide] | < 100 nM |
| CN(C)CCN(C)c1ccc(Nc2ncc(C3CC3)c(NCCCNC(=O)C3CCC3)n2)cn1 [Example 100, Cyclobutanecarboxylic acid [3-(5-cyclopropyl-2-{6-[(2-dimethylamino-ethyl)-methyl-amino]-pyridin-3-ylamino}-pyrimidin-4-ylamino)-propyl]-amide] | < 100 nM |
| CN(CCN1CCOCC1)c1ccc(Nc2ncc(C3CC3)c(NCCCNC(=O)C3CCC3)n2)cn1 [Example 102, Cyclobutanecarboxylic acid [3-(5-cyclopropyl-2-{6-[methyl-(2-morpholin-4-yl-ethyl)-amino]-pyridin-3-ylamino}-pyrimidin-4-ylamino)-propyl]-amide] | < 100 nM |
| O=C(NCCCNc1nc(Nc2ccc(CO)nc2)ncc1C1CC1)C1CCC1 [Example 103, Cyclobutanecarboxylic acid {3-[5-cyclopropyl-2-(6-hydroxymethyl-pyridin-3-ylamino)-pyrimidin-4-ylamino]-propyl}-amide] | < 100 nM |
| O=C(NCCCNc1nc(Nc2ccc(CN3CCOCC3)nc2)ncc1C1CC1)C1CCC1 [Example 104, Cyclobutanecarboxylic acid {3-[5-cyclopropyl-2-(6-morpholin-4-ylmethyl-pyridin-3-ylamino)-pyrimidin-4-ylamino]-propyl}-amide] | < 100 nM |
| O=C(NCCCOc1nc(Nc2cccc(F)c2)ncc1C1CC1)C1CCC1 [Example 105] | 100 to 1000 nM |

From US20100056524A1, “Compound” (priority 2008, published 2010)
